Measurements as given in patent US10196671B2, “Assay method for the detection of viable microbial cells in a sample” (3M INNOVATIVE PROPERTIES COMPANY, priority 2006, dated 2019).

What was measured:
[1] = biological target: T1, apyrase (Solanum tuberosum, UniProt P80595)
Protocol: A loop was taken from this plate and transferred to 10 ml Tryptone Soya Broth and grown at 30° C. for exactly 40 hours.
1.3. […] Cells were washed twice in ice-cold Reverse Osmosis water in centrifuge (4500 rpm for 10 mins), resuspended in 10 ml cold Reverse Osmosis water and stored in the fridge.
(§1) Cells for the experiment were prepared using a 100× dilution of this stock with a sterile solution of glucose (10 g/l) and MgCl2 (5 mM) at room temperature. Cells were diluted into this solution at least 20 minutes prior to starting each experiment to allow adaptation to the new conditions.
(§2) 2. 1 ml of the above cell suspension was added to a cuvette.

[2] = biological target: T1, apyrase; remark: listed apart in the source
Protocol: (§3) 1. Leuconostoc sp MD 110 was grown by streaking a bead onto de Man Rogosa Sharpe agar to revive bead for stock (place in 30° C. incubator overnight).
a. A loop was taken from this plate and transferred to 10 ml Tryptone Soya Broth and grown at 30° C. for exactly 40 hours.
as §1, with “b. […] Cells were washed twice in ice-cold Reverse Osmosis water in centrifuge (4500 rpm for 10 mins), resuspended in 10 ml cold Reverse Osmosis water and stored in the fridge. c. Cells for” for “Cells for”
d. A luciferase/luciferin reagent formulated with a detergent-resistant luciferase (Promega, Ultraglo) (Liquid Lysate) enzyme was reconstituted in 17.5 ml phosphate buffer pH 7.75.
as §2
3. The suspension was then treated with 1 ml of reconstituted apyrase 0.96 units per ml, and […] of ATP (10^−7M) was added and left for 15 minutes at room temperature.
(§4) 4. Two 100 μl aliquots of the treated suspension was transferred to clean cuvettes.
5. 100 μl of the luciferase/luciferin reagent formulated with a detergent-resistant luciferase (Promega, Ultraglo)/phosphate luciferase was added to each of the cuvettes.
6. To the remaining 2 cuvettes 100 μl of a solution of long chain fatty acid ethoxylates (the extractant) was added and a timer started.
7. Cuvette 1 was read in a luminometer after 5 minutes extraction time.
8. Cuvette 1 was removed from the luminometer and 10 μl of 10^−7M ATP was added to standardise.
9. The sample was returned to the luminometer and read again, then read 5 consecutive times in a row in order to determine the final kinetics of the reaction.
10. After a further five minutes steps 9-11 were repeated for cuvette 2.
11. For the control steps 4 to 13 were repeated but using a luciferase/luciferin reagent formulated with a detergent-resistant luciferase (Promega, Ultraglo) reconstituted in 25 mM HEPES buffer pH 7.75.

[3] = biological target: T1, apyrase; remark: listed apart in the source
Protocol: as §3
1.1 A loop was taken from this plate and transferred to 10 ml Tryptone Soya Broth and grown at 30° C. for exactly 40 hours.
Cells were washed twice in ice-cold RO water in centrifuge (4500 rpm for 10 mins), resuspended in 10 ml cold Reverse Osmosis water and stored in the fridge.
(§5) 1.3. Cells for the experiment were prepared using a 100× dilution of this stock with a sterile solution of glucose (10 g/l) and MgCl2 (5 mM) at room temperature. Cells were diluted into this solution at least 20 minutes prior to starting each experiment to allow adaptation to the new conditions.
1 ml of the above cell suspension was added to a cuvette.
2. The suspension was then treated with 1 ml of reconstituted apyrase 0.96 units per ml, and 10 μl of ATP (10^−7M) was added and left for 15 minutes at room temperature.
3. 2×100 μl aliquots of the treated suspension were added to clean cuvettes.
4. To these 2 cuvettes 20 μl of 100 μM pH 7.75 phosphate solution was added.
5. 100 μl of the extractant (a solution of long chain fatty acid ethoxylates) was added and a timer started.
(§6) 6. After 5 minutes extraction time Cuvette 1 was read in a luminometer.
(§7) 7. Cuvette 1 was removed from the luminometer and 10 μl of 10^−7M ATP was added to standardise.
(§8) 8. The sample was returned to the luminometer and read again, then read 5 consecutive times in a row in order to determine the final kinetics of the reaction.
(§9) 9. After a further five minutes the second water cuvette was read in a luminometer.
(§10) 10. Steps 7-11 were repeated for cuvette 2.
11. For the control, steps 4 to 13 were repeated but using 20 μl of Reverse Osmosis water in place of 20 μl phosphate.

[4] = biological target: T1, apyrase; remark: listed apart in the source
Protocol: as §3
1.1. A loop was taken from this plate and transferred to 10 ml Tryptone Soya Broth and grown at 30° C. for exactly 40 hours.
Cells were washed twice in ice-cold Reverse Osmosis water in centrifuge (4500 rpm for 10 mins), resuspended in 10 ml cold Reverse Osmosis water and stored in the fridge.
as §5
A special luciferase/luciferin reagent formulated with a detergent-resistant luciferase (Promega, Ultraglo) enzyme was prepared. This was reconstituted in 17.5 ml of 30 mM phosphate /10 g/l a solution of long chain fatty acid ethoxylates.
as §2
3. The suspension was then treated with 1 ml of reconstituted apyrase 0.96 units per ml, and 10 μl of ATP (10^−7M) was added and left for 15 minutes at room temperature.
as §4
5. To these two cuvettes 100 μl of the luciferase/luciferin reagent formulated with a detergent-resistant luciferase (Promega, Ultraglo) Ultraglo/phosphate/solution of long chain fatty acid ethoxylates was added.
as §6, §7, §8, §9, §10
11. For the control, steps 4 to 13 were repeated but using a luciferase/luciferin reagent formulated with a detergent-resistant luciferase (Promega, Ultraglo) made by reconstituting in 25 mM HEPES buffer pH 7.75 with a solution of long chain fatty acid ethoxylates (10 g/l).

T1 sequence (P80595 whole entry, species assumed): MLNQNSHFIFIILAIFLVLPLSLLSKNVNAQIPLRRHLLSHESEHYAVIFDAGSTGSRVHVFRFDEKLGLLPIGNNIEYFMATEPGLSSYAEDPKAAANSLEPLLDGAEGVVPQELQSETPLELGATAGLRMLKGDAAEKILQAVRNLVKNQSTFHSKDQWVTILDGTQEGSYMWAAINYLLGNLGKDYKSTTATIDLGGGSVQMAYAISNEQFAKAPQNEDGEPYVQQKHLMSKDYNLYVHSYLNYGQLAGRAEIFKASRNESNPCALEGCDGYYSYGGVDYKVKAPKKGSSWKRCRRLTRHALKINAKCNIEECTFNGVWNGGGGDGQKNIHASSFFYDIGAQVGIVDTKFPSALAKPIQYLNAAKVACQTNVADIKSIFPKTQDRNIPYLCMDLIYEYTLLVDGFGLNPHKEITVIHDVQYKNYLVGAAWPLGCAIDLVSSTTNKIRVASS

rise in RLU from T-5 to T-10 ([1]; 30 mM phosphate mixed with the extractant, after 15 min apyrase 0.96 units per ml, Leuconostoc sp MD 110 suspension): 38%
inhibition of apyrase (kinetics, FIG. 1.3) ([1]; 30 mM phosphate, ATP standard added, consecutive luminometer reads): inhibits the action of apyrase
drop of assay signal (kinetics, FIG. 2.3) ([2]; in 50 seconds after ATP standard, phosphate buffer pH 7.75): 10%
RLU produced after 5 minutes extraction still remaining at T=10 minutes ([2]; luciferase reagent reconstituted in phosphate buffer pH 7.75): 73.7%
amount of ATP at T=10 as percentage of that present at T=5 ([2]; phosphate buffer pH 7.75): 81.3%
amount of ATP at T=5 ([2]; phosphate buffer pH 7.75, T=5 minutes): 0.035 picomoles
amount of ATP remaining at T=10 ([2]; phosphate buffer pH 7.75, T=10 minutes): 0.029 picomoles
inhibition of apyrase, ATP broken down in 5 minutes (FIG. 4.2) ([3]; 20 μl of 100 μM pH 7.75 phosphate solution): does inhibit apyrase
RLU produced after 5 minutes extraction remaining 5 minutes later ([3]; 20 μl of 100 μM pH 7.75 phosphate solution added before extractant): 100%
level of ATP present in the assay, T-5 to T-10 ([3]; 20 μl of 100 μM pH 7.75 phosphate solution, patent believes it an artifact of the calculation): increased
drop of RLU values (kinetics) ([3]; in 46 seconds, 20 μl of 100 μM pH 7.75 phosphate solution): around 1,400 RLU
amount of ATP per assay higher at T=10 than at T=5 ([4]; 30 mM phosphate in luciferase/extractant reagent): 42%
amount of ATP per assay at T=5 ([4]; 30 mM phosphate in luciferase/extractant reagent, T=5): 0.0052 picomoles
amount of ATP per assay at T=10 ([4]; 30 mM phosphate in luciferase/extractant reagent, T=10): 0.0074 picomoles
increase of RLU values (kinetics) ([4]; in 75 seconds, 30 mM phosphate in luciferase/extractant reagent): 13%
RLU signal higher at T=10 than at T=5 ([4]; luciferase reagent in 30 mM phosphate / 10 g/l long chain fatty acid ethoxylates): 57%
Substance: phosphate
